Results: publication PMC3345088 (Journal of Immunology (Baltimore, Md. : 1950), 2012)
Where two headings read alike, the source gives them in different places.

What was measured:
DRB1*01:01 = DRB1*01:01 (Homo sapiens, UniProt P01903+P01911, A100R/D57E/F55L/F60I/F76Y/I96L/L162R/M171V/P40L/Q125E/R42F/V115G/Y59C); assay: MHC-peptide binding assay
[1] = system: CD4+ T cells from LTBI donors; assay: HLA locus restriction, antibody inhibition IFNγ ELISPOT; type: cell-based, human; conditions: antibodies 10 µg/ml against HLA-DR, DP or DQ
HLA class II alleles = system: HLA class II alleles; set-up: species or system human

CFP10 40–54: 15-mer peptide epitope, residues 40–54 of CFP10 (Rv3874) (QGQWRGAAGTAAQAA; UniProt P9WNK5 40-54, looked up, fragment)
Binding to DRB1*01:01 (DRB1*01:01): high affinity | Restricting HLA locus ([1]; donor TU7): DP, DQ, DR | Donors that responded expressing DRB1*01:01 (HLA class II alleles): 3 of 4

CFP10 52–66: 15-mer peptide epitope, residues 52–66 of CFP10 (Rv3874)
No. donors expressing allele resp. (HLA class II alleles): 4 of 5 | No. donors expressing allele resp. (HLA class II alleles; listed as CFP10_52–66): 4 out of 5

CFP10 72–86: 15-mer peptide epitope, residues 72–86 of CFP10 (Rv3874) (ISTNIRQAGVQYSRA; UniProt P9WNK5 72-86, looked up, fragment)
Restricting HLA locus ([1]; donor TU2): DP, DQ, DR | Restricting HLA locus ([1]; donor TU11): DP, DQ, DR

ESAT-6 3–17: 15-mer peptide epitope, residues 3–17 of ESAT-6 (Rv3875) (EQQWNFAGIEAAASA; UniProt P9WNK7 3-17, looked up, fragment)
Restricting HLA locus ([1]; donor TU25): DQ, DR

ESAT-6 73–87: 15-mer peptide epitope, residues 73–87 of ESAT-6 (Rv3875) (ARTISEAGQAMASTE; UniProt P9WNK7 73-87, looked up, fragment)
No. donors expressing allele resp. (HLA class II alleles): 3 of 5 | No. donors expressing allele resp. (HLA class II alleles; listed as ESAT-6_72–87): 3 out of 5

Rv2031c 106–120: 15-mer peptide epitope, residues 106–120 of Rv2031c (hspX) (VGADEDDIKATYDKG; UniProt P9WMK1 106-120, looked up, fragment)
Restricting HLA locus ([1]; donor TU2): DP, DR | Restricting HLA locus ([1]; donor TU8): DP, DQ, DR | Restricting HLA locus ([1]; donor TU29): DP, DR
